Patent publication US7259167B2, “Antimalarial and antiproliferative pharmacophore models, novel tryptanthrin compounds having increased solubility, and methods of making and using thereof” (United States of America as Represented by the Secretary of …, priority 2002, dated 2007)
Converted amounts (≈) assume the structure as drawn.

Columns and labels:
[1] = Hemin binding activity assay by 1H NMR (pseudocontact shifts); conditions: for Maximum induced Δδ: hemin induced pseudocontact chemical shift; for Maximum induced Δδ / Concentration dependence Δδ: DMSO-d6; for Concentration dependence Δδ: slope of Δδ v. hemin concentration
Protocol: (§1) As provided in Example 5, the hemin binding affinity for a series of tryptanthrin compounds with functional groups at the 8-position with different electron donating/withdrawing characteristics corresponding with the pharmacophore model of the present invention was determined by ^1H NMR. The binding interaction was measured as a function of the induced up-field shift in the chemical shift as a function of increasing hemin concentration. ^1H spectra of selected compounds each analog with an increasing concentration of hemin were collected and analyzed for the effect of the pseudocontact shifts.
It is well known that bio-molecules containing the paramagnetic species Fe^+3 induce via pseudocontact effect (a thru-space paramagnetic interaction, similar to the thru-space diopolar interaction or NOE) up-field chemical shifts of the ^1H, ^13C, ^15N atoms of bound ligands. See Serge Moreau et al. (1985) Biochemica et. Biophysica Acta 107-116; Alam, S. L., et al. (1998) J. Biomol. NMR 11:119-133; and Kalodimos, C. G., et al. (2000) J. Inorg. Biochem. 79:371-380, which are herein incorporated by reference. […] See Crowley, P. B., et al. (2001) J. Am. Chem. Soc. 123:10444-10453, which is herein incorporated by reference. Consequently, the closer a particular proton on the ligand is to the Fe^+3 atom, the greater the induced Δδ.
as §1, with “The” for “As provided in Example 5, the”, “using” for “by”, “of” for “of selected compounds”
To each sample, a 100 or 200 μl aliquot of a known concentration of hemin dissolved in 1.0 ml of DMSO-d6 was added. The concentrations of the tryptanthrin compounds compounds ranged from 3.0 to 8.0 mg per 500 μl of DMSO. A corresponding solution of hemin in DMSO was prepared to maintain a molar ratio of tryptanthrin compounds to hemin in the range of 1:1.0 to 1:1.5.
All ^1H NMR data was collected using a Bruker Avance-600 spectrometer using methods known in the art. See e.g. Wang, J., et al. (2001) J. Am. Chem. Soc. 123:8080-8088, which is herein incorporated by reference. The proton spectra were collected at 300 K, using a spectral width of 9090.9 Hz. All spectra were acquired with 64k data points in F2. All chemical shifts were referenced internally to TMS (0.00 ppm). The spectra were processed using XWINNMR (Bruker BioSpin Corporation, Billerica, Mass.) on a Silicon Graphics O2 workstation (Silicon Graphics, Mountain View, Calif.). Each data set was multiplied by a Gaussain window function with 0.3 Hz line broadening in each dimension before transformation.

[2] = tested on: P. falciparum D6 (Sierra Leone) clone; assay: Antimalarial activity assay in vitro ([3H]hypoxanthine incorporation), D6 clone; format: cell-based; conditions: Plasmodium falciparum, Table 7, read-out: D-6
Protocol: (§2) The tryptanthrin compounds were examined for IC50 values against either the P. falciparum W2 (Indochina) or D6 (Sierra Leone) clones in vitro. See U.S. Pat. No. 6,284,772, which is herein incorporated by reference. The in vitro assays were conducted by using the semiautomated microdilution technique of Desjardins, et al. (1979) Antimicrob. Agents Chemther. 16:710-718 and the [^3H]hypoxanthine incorporation techniques of Chulay et al. (1983) Exp. Parasitol. 55:138-146, both of which are herein incorporated by reference. […] The clones were derived by direct visualization and micromanipulation from the patient isolates.
(§3) Test tryptanthrin compounds were initially dissolved in DMSO and diluted 400-fold in RPMI 1640 culture medium supplemented with 25 mM Hepes, 32 mM NaHCO3 and 10% Albumax I (GIBCO BRL, Grand Island, N.Y.). These solutions were subsequently serially diluted 2-fold with a Biomek 1000 (Beckman, Fullerton, Calif.) over 11 different concentrations. The parasites were exposed to serial dilutions of each compound for 48 hours and incubated at 37° C. with 5% O2, 5% CO2, and 90% N2 prior to the addition of [^3H]hypoxanthine. After a further incubation of 18 hours, parasite DNA was harvested from each microtiter well using a Packard Filtermate 196 Harvester (Meriden, Conn.) onto glass filters. Uptake of [^3H]hypoxanthine was measured with a Packard topcount scintillation counter.

[3] = Cyclic voltammetry, redox potentials; format: physicochemical; parameters: unit not given here; conditions: 1 mM in acetonitrile, 0.1 M tetrabutylammonium hexafluorophosphate, Ag-AgCl reference
Protocol: The redox potentials associated with electron transfer to the oxygen atoms in compounds was measured. Experiments were performed on a CV-50W Voltammetric analyzer with a C2 cell stand (Bioanalytical systems, West Lafayette Ind.).
Cyclic voltammetry experiments were performed on a CV-50W Voltammetric analyzer with a C2 cell stand (Bioanalytical systems, West Lafayette Ind.). A glassy carbon working, an Ag—AgCl reference electrode and a Pt auxiliary electrode were used in a 5 ml glass cell. All samples were dissolved in dry acetonitrile (Aldrich, St. Louis, Mo.) with 0.1 M tetrabutylammonium hexafluorophosphate (Aldrich, St. Louis, Mo.) as the supporting electrolyte. Each analog was prepared at a concentration of 1 mM and was degassed with nitrogen for 5 minutes prior to analysis. Samples were run at several scan rates ranging from 20 to 1000 mV/s. See Smyth, M. R., and Vos, J. G. Analytical Voltammetry; Elsevier: New York, 1992; Chapter 1, which is herein incorporated by reference.

[4] = tested on: P. falciparum W2 (Indochina) clone; assay: Antimalarial activity assay in vitro ([3H]hypoxanthine incorporation), W2 clone; format: cell-based; conditions: Plasmodium falciparum, Table 7, read-out: W-2
Excerpt: Although two P. falciparum malaria parasite clones, designated as Sierra Leone (D6) and Indochina (W2) were used in the susceptibility testing as disclosed in Example 1, the IC50 values obtained from the W2 clones were used as the activity parameter to develop the pharmacophore model as the D6 clone results closely paralleled the W2 clones. See U.S. Pat. No. 6,284,772, which is herein incorporated by reference.
as §2, §3

[5] = tested on: malaria parasites; assay: In vivo testing (modified Thompson test), mouse malaria; parameters: species or system mice
Excerpt: The in vivo efficacy of the compounds of the present invention alone or in combination with an adjuvant can be determined in a modified Thompson test. This test measures the survivability of mice and parasitemia clearance following administration of the compound or composition of the invention on days 3-5 post infection. In brief, 5×10^5 malaria parasites of one or more of the four described strains are inoculated intraperitoneally to female mice that weight approximately 24-30 g. Each compound was dissolved in 5% sodium bicarbonate, and was administered p.o. twice daily from day 3 to day 5 postinfection. Total dosage of the compounds of the invention is 0.001 to 1000 mg/kg. The percent suppression of parasitemia in the treated mice compared to untreated controls is determined for each test compound. Survival of mice to day 60 post infection is considered a cure. Compounds are considered active when the survival time of the treated mice is greater than twice the control mice.
The test of the six compounds identified above were conducted by subcutaneous dosing in peanut oil. Formulated in peanut oil and injected s.c. (N=8) at various doses up to 190 mg/kg. […] Although parasites were not cleared, the survival of infected mice doubled that of the control. Life expectancy was 12-14 days compared to 6-7 days in the control (parasitized, untreated).

Row | Compound | Maximum induced Δδ [1] [ppm] | Concentration dependence Δδ [1] [ppm/mole %] | IC50 [2] [ng/mL] | Redox1 [3] | Redox 2 [3] | IC50 [4] [ng/mL] | also measured
1 | O=C1c2cc(OC(F)(F)F)ccc2-n2c1nc1ncccc1c2=O [DN9] | 0.462 | 0.08951 | – | – | – | – | –
2 | COc1ccc2c(c1)C(=O)c1nc3ncccc3c(=O)n1-2 [DN23] | 0.208 | 0.119 | – | – | – | – | –
3 | O=C1c2cc([N+](=O)[O-])ccc2-n2c1nc1ncccc1c2=O [DN40] | 1.538 | 0.4159 | – | – | – | – | maximum pseudocontact shift relative to DN48 ([1]; compared with DN48): approximately 3 times
4 | O=C1c2ccc(Cl)cc2-n2c1nc1ncccc1c2=O [DN48] | 0.389 | 0.119 | – | – | – | – | –
5 | O=C1c2cc(F)ccc2-n2c1nc1ncccc1c2=O [DN63] | 0.360 | 0.1366 | – | – | – | – | –
6 | O=C1c2cc(F)ccc2-n2c1nc1ccccc1c2=O [WR^282611] | – | – | – | – | – | – | survival of infected mice relative to control ([5]; 190 mg/kg s.c. in peanut oil): doubled; Life expectancy ([5]; 190 mg/kg s.c. in peanut oil, control 6-7 days): 12 to 14 days; activity ([5]; max. dosage 190 mg/kg s.c. in peanut oil): exhibited activity

More lines, main results first:

Row | Maximum induced Δδ [1] [ppm] | Concentration dependence Δδ [1] [ppm/mole %] | IC50 [2] [ng/mL] | Redox1 [3] | Redox 2 [3] | IC50 [4] [ng/mL] | Compound | also measured
7 | – | – | 4.12 (≈ 0.0121 µM) | −630 | −1281 | 2.46 (≈ 0.00723 µM) | CN(CCO)c1ccc2c(=O)n3c(nc2c1)C(=O)c1cc(F)ccc1-3 [WR281523] | –
8 | – | – | 2.31 (≈ 0.00566 µM) | −600 | −1252 | 1.25 (≈ 0.00307 µM) | O=C1c2cc(OC(F)(F)F)ccc2-n2c1nc1cc(SCCO)ccc1c2=O [WR281525] | –
9 | – | – | 6.77 (≈ 0.0225 µM) | −586 | −1242 | 4.74 (≈ 0.0158 µM) | O=C1c2cc(Cl)ccc2-n2c1nc1cc(F)ccc1c2=O [WR281583] | –
10 | – | – | 10.5 (≈ 0.0275 µM) | −692 | −1324 | 4.27 (≈ 0.0112 µM) | CN1CCN(c2ccc3c(=O)n4c(nc3c2)C(=O)c2cc(Cl)ccc2-4)CC1 [WR281588] | –
11 | – | – | 70.1 (≈ 0.146 µM) | −709 | −1375 | 36.8 (≈ 0.0764 µM) | CCCCCCCC(=O)OCCN(C)c1ccc2c(=O)n3c(nc2c1)C(=O)c1cc(Cl)ccc1-3 [WR281591] | –
12 | – | – | 2.57 (≈ 0.00904 µM) | −593 | −1219 | 1.58 (≈ 0.00557 µM) | O=C1c2cc(F)ccc2-n2c1nc1c(F)cccc1c2=O [WR281631] | –
13 | – | – | 95.3 (≈ 0.236 µM) | −640 | −1230 | 35.6 (≈ 0.0882 µM) | COc1cccc2c(=O)n3c(nc12)C(=O)c1cc(I)ccc1-3 [WR281635] | –
14 | – | – | 97.1 (≈ 0.265 µM) | −696 | −1348 | 58.1 (≈ 0.159 µM) | O=C1c2cc(Cl)ccc2-n2c1nc1cc(N3CCCCC3)ccc1c2=O [WR281647] | –
